From patent publication US6413967B1, “Inhibition of novel calcium entry pathway in electrically non-excitable cells acting as an anti-proliferative therapy” (The University of Virginia Patents Foundation, priority 1995, dated 2002)

Assays:
[1] = test system: [Ca^2+]i in Jurkat T cells; experiment: receptor-stimulated Ca2+ influx in Jurkat T cells (anti-CD3 mAb OKT3); format: cell-based, human; set-up: key to T cell [Ca^2+]i (pre) / T cell [Ca^2+]i: NE: no effect; ND: not determined; details: 10 or 30 μM drug; for T cell [Ca^2+]i: effect the same post- and pre- T cell receptor stimulation; for T cell [Ca^2+]i (post): drug added post T cell receptor stimulation; for T cell [Ca^2+]i (pre): drug added pre T cell receptor stimulation
Protocol: Initially, all drugs are screened using Jurkat T cells incubated with indo-1/AM as outlined below. In the event that there is an effect of the drug on the maximum [Ca^2+]i reached following treatment of the cells with the anti-CD3 mAb […], the drug is evaluated for any effects on the spectral characteristics of indo-1 as outlined in Haverstick and Gray, Mol. Biol. Cell (1993) 4:173. If there is an effect of the drug on the spectral characteristics of indo-1 , the drug is further examined for spectral effects on the combination of fura-red and fluo-3. If there is no effect of the drug on the fura-red/fluo-3 combination, the drug is examined for effects on the maximum [Ca^2+]i reached following OKT3 treatment of cells incubated with 5 μM fura-red and […] as outlined below.
Jurkat cells are incubated in RPMI-1640 plus 5% fbs in the presence of the acetoxymethyl ester of either indo-1 (1 μM) or the combination of fura-red (5 μM) with fluo-3 (1 μM) for one hour at 37° C. Cells are washed three times in buffer A [[…] 4-(2-hydroxyethyl)-1-piperazine ethanesulfonic acid (HEPES), pH 7.4, 3 MM KCl, 1 mM MgCl2, 1 mM CaCl2, 140 mM NaCl, 0.1% glucose] containing 1% fbs and suspended to a final concentration of 1×10^6/ml. Cells are then placed in the 37° C. jacketed cell holder of the SLM 8000C. Antigen receptor engagement is mimicked by the addition of the anti-CD3 monoclonal antibody OKT3 (Gray et al, J. Exp. Med. (1988) 167:1963; Gray et al, J. Immunol. 142:1631). The effect of drug added prior to receptor stimulation or at the plateau phase of Ca^2+ entry is determined as follows:
Prior drug: 10 or 30 μM drug @ 30 seconds, 1 μg/ml OKT3 at 90 seconds
Post drug: 1 μg/ml OKT3 at 30 second, 10 or 30 μM drug @ 120 seconds

Jurkat T cells = experiment: Jurkat cell proliferation, tetrazolium dye; format: cell-based, human; set-up: key to T cell PROLIF: NE: no effect; ND: not determined; details: 48 hours
Protocol: (§1) The effect of various drugs on the proliferation of Jurkat T cells, MDA-468 human breast cancer cells and PC3 human prostate cancer cells was determined by incubating the cells with the indicated concentrations of drug for 48 hours. The number of viable cells remaining at the end of the incubation period was evaluated using the procedure outlined in Example 4.
(§2) Cells are plated in triplicate in a 96-well flat-bottomed plate (Jurkat: 5e4 cells/well in RPMI-1640 plus 5% fbs; MDA468: 2.5e4 per well in DMEM plus 5% fbs and 11 μg/ml insulin) in the absence (control) or presence of drug at 3, 10, 30, and 100 μM. An additional control of 100 μM drug in RPMI-1640 plus 5% fbs or DMEM plus 5% fbs and 11 μg/Ml insulin with no cells is included with each run to control for possible drug interactions with the dye. The plate is then placed in a 5% CO2 37° C. incubator for 44 to 48 hours. 20 μl of dye solution containing a tetrazolium dye (3-(4,5-dimethylthiazol-2-yl)-5-(3-carboxymethoxyphenyl)-2-(4-sulfophenyl)-2H-tetrazolium, Owen's reagent) plus coupling reagent (phenazine methosulfate) is added to each well, the plate is returned to the incubator, and the absorbance at 490 nm is read using an ELISA plate reader 3 to 4 h (Jurkat cells) or 2 to 3 h (MDA-468 cells) later. All data are presented as percent of control (no drug addition). With this protocol, it is possible to determine the effect of 5 drugs at 4 concentrations in a single 96-well plate as outlined below: […]

[2] = test system: MDA-468 human breast cancer cells; experiment: MDA-468 cell proliferation, tetrazolium dye; format: cell-based; set-up: key to MDA PROLIF: NE: no effect; ND: not determined; details: human breast cancer cell proliferation, 48 hours
Protocol: as §1, §2

[3] = test system: VG Ca^2+ current in Jurkat cells; experiment: perforated patch clamp, voltage gated (VG) Ca2+ current; format: cell-based, human
Protocol: (§3) All recordings were performed using the perforated patch method (Horn et al, J. Gen. Physiol. (1988) 92:145) of the gigaseal patch clamp technique (Hammil et al, Pflugers Arch (1981) 391:85) with microelectrodes of 5-10 megohm series resistance. In all solutions for voltage clamp, K^+ was replaced with Cs^+ to block outward K^+ currents (Fox et al, J. Physiol. (Lond.) (1987) 392:149). The bath solution contained (in mM): NaCl, 155; CsCl, 4.5; CaCl2, 2; MgCl2, 1; D-glucose, 5; HEPES, 10 (pH 7.4 with NaOH). The pipette solution contained (in mM): CsCl, 55; Cesium methanesulfonate, 70; CaCl2, 1; MgCl2, 7; HEPES, 10 (pH 7.3 with NaOH). Nystatin was made as a stock solution of 6 mg/100 μl DMSO, and 2 μl of the stock was added to 1 ml of the pipette solution for use. Both pipette and bath solutions were 290-300 mOsm. Experiments were performed on cells at room temperature using the Axopatch-1D patch clamp (Axon Instruments, Foster City, Calif.) after correction of junction potentials and leak subtraction. Records were low-pass filtered at 500 Hz, and the data were collected, stored and analyzed using the pClamp software program (Axon Instruments). For the non-voltage gated current traces, data is presented either as the tracing from a chart recorder or from the digital data in which the current was measured at 5 second intervals and plotted as individual points.

[4] = test system: NVG current in Jurkat cells; experiment: perforated patch clamp, non-voltage gated (NVG) current; format: cell-based, human
Protocol: as §3

[5] = test system: [Ca^2+]i in MDA-468 cells; experiment: EGF receptor-stimulated Ca2+ influx in MDA-468 cells; format: cell-based, human; set-up: key: NE: no effect; ND: not determined; details: for MDA [CA^2+]i: effect the same post- and pre- EGF receptor stimulation
Protocol: MDA468 cells are incubated with either indo-1 or the combination of fura-red/fluo-3 for 1 hour while still adherent in the maintenance flask in DMEM plus 5% fbs and 1 μg/ml insulin. Cells are removed by gentle scraping and washed three times in buffer A containing 1% charcoal stripped fbs (Nelson et al, Br. J. Cancer (1991) 63:933). The cells are then suspended to a final concentration of 1e6/ml and used as above in the SLM. For the human breast cancer cells, Ca^2+ entry is stimulated by the addition of 25 ng/ml EGF, rather than the antibody used above.

## Cc1cccc(C)c1NC(=O)CN1CCN(CCCC(c2ccc(F)cc2)c2ccc(F)cc2)CC1 [lidoflazine]
[1]
  T cell [Ca^2+]i: ↓
Jurkat T cells
  T cell PROLIF: ↓
[2]
  MDA PROLIF: (↓)

## CC(NC(C)(C)C)C(=O)c1cccc(Cl)c1 (stereo not drawn) [bupropion]
[1]
  T cell [Ca^2+]i: NE
Jurkat T cells
  T cell PROLIF: NE
[2]
  MDA PROLIF: NE

## [Cl][Mn][Cl] [MnCl2]
[3]; 0.3 mM Mn^2+ in medium containing 2 mM Ca^2+
  increase of the VG Ca^2+ current: about 10%
[3]; amiloride 100 μM, MnCl2 300 μM, NiCl2 1 mM, W-7 alone (unstimulated current)
  effect on the VG Ca^2+ current: not blocked
[4]; membrane potential −60 mV, 300 nM thapsigargin, amiloride 100 μM, MnCl2 300 μM, NiCl2 1 mM, W-7 30 μM, NDGA 10 μM
  effect on the thapsigargin-induced NVG current: reversibly blocked

## O=c1n(CCCN2CCN(c3cccc(Cl)c3)CC2)nc2ccccn12 [trazodone]
[1]
  T cell [Ca^2+]i: NE
Jurkat T cells
  T cell PROLIF: NE
[2]
  MDA PROLIF: NE

## CC(NCCC(c1ccccc1)c1ccccc1)c1ccccc1 (stereo not drawn) [fendiline]
[1]
  T cell [Ca^2+]i: ↓
Jurkat T cells
  T cell PROLIF: ↓
[5]
  MDA [CA^2+]i: ↑
[2]
  MDA PROLIF: ↓

## CC(C)COCC(CN(Cc1ccccc1)c1ccccc1)N1CCCC1 (stereo not drawn) [bepridil]
[1]
  T cell [Ca^2+]i (post): ↓ (post)
  T cell [Ca^2+]i (pre): NE (pre)
Jurkat T cells
  T cell PROLIF: ↓
[5]
  MDA [CA^2+]i: ↑
[2]
  MDA PROLIF: ↓

## OCCOCCN1CCN(C(c2ccccc2)c2ccc(Cl)cc2)CC1 (stereo not drawn) [hydroxyzine]
[1]
  T cell [Ca^2+]i: NE
Jurkat T cells
  T cell PROLIF: NE
[2]
  MDA PROLIF: NE

## O=C1CN(/N=C/c2ccc(-c3ccc([N+](=O)[O-])cc3)o2)C(=O)N1 [datrolene]
[1]
  T cell [Ca^2+]i: NE
[5]
  MDA [CA^2+]i: NE
[2]
  MDA PROLIF: NE

## Cc1cccc(CN2CCN(C(c3ccccc3)c3ccc(Cl)cc3)CC2)c1 (stereo not drawn) [meclizine]
[1]
  T cell [Ca^2+]i (post): ↓ (post)
  T cell [Ca^2+]i (pre): NE (pre)
Jurkat T cells
  T cell PROLIF: (↓)
[2]
  MDA PROLIF: NE

## COc1cc(CCO)ccc1O [3-methoxy, 4-hydroxyphenylethanol]
[1]
  T cell [Ca^2+]i: NE
[2]
  MDA PROLIF: NE

## C1CCC(C(CC2CCCCN2)C2CCCCC2)CC1 (stereo not drawn) [perhexiline]
[1]
  T cell [Ca^2+]i (post): ↑ (post)
  T cell [Ca^2+]i (pre): ↓(pre)
Jurkat T cells
  T cell PROLIF: ↓
[5]
  MDA [CA^2+]i: ↑
[2]
  MDA PROLIF: ↓

## Fc1ccc(C(c2ccc(F)cc2)N2CCN(C/C=C/c3ccccc3)CC2)cc1 [flunarizine]
[1]
  T cell [Ca^2+]i: ↓
Jurkat T cells
  T cell PROLIF: ↓
[5]
  MDA [CA^2+]i: NE
[2]
  MDA PROLIF: NE

## COc1ccc2cc1Oc1ccc(cc1)C[C@H]1c3cc(c(OC)cc3CCN1C)Oc1c(OC)c(OC)cc3c1[C@H](C2)N(C)CC3 [tetrandrine, 6,6′,7,12-tetramethoxy-2,2′-dimethyl-baman]
[1]
  T cell [Ca^2+]i (pre): NE (pre)
[5]; drug added pre EGF receptor stimulation
  MDA [CA^2+]i (pre): NE (pre)

## CCN(CC)C(=O)N1CCN(C)CC1 [diethylcarbamazine]
[1]
  T cell [Ca^2+]i: NE
Jurkat T cells
  T cell PROLIF: NE
[5]
  MDA [CA^2+]i: NE
[2]
  MDA PROLIF: NE

## O=C(O)c1cccnc1Nc1cccc(C(F)(F)F)c1 [niflumic acid]
[1]
  T cell [Ca^2+]i (post): ↓ (post)
  T cell [Ca^2+]i (pre): NE (pre)
Jurkat T cells
  T cell PROLIF: (↓)
[2]
  MDA PROLIF: NE

## COC(=O)C1=C(C)NC(C)=C(C(=O)OCCN(C)Cc2ccccc2)C1c1cccc([N+](=O)[O-])c1 (stereo not drawn) [nicardipine]
[5]
  MDA [CA^2+]i: NE

## CN1CCN(C(c2ccccc2)c2ccc(Cl)cc2)CC1 (stereo not drawn) [chlorcyclizine]
[1]
  T cell [Ca^2+]i: NE
[5]
  MDA [CA^2+]i: ↑
[2]
  MDA PROLIF: ↓

## COc1cc(/C=C/C(=O)CC(=O)/C=C/c2ccc(O)c(OC)c2)ccc1O [curcumin]
Jurkat T cells
  T cell PROLIF: ↓
[2]
  MDA PROLIF: NE

## C(=C\c1ccccc1)/CN1CCN(C(c2ccccc2)c2ccccc2)CC1 [cinnarizine]
[1]
  T cell [Ca^2+]i: ↓
Jurkat T cells
  T cell PROLIF: ↓
[5]
  MDA [CA^2+]i: NE
[2]
  MDA PROLIF: NE

## C/C=C(/C)C(=O)O[C@H]1C(C)=C2[C@H]([C@@H]1OC(=O)CCCCCCC)[C@@](C)(OC(C)=O)C[C@H](OC(=O)CCC)[C@@]1(O)[C@H]2OC(=O)[C@@]1(C)O [thapsigargin]
[3]; 300 nM thapsigargin, n=10, unstimulated 18.7 pA
  mean maximum VG Ca^2+ current following addition: 30.6 pA
[4]; imposed membrane potential −60 mV, n=38
  mean maximum magnitude of the induced NVG current: 3.6 pA

## CN1CCN2c3ccccc3Cc3ccccc3C2C1 (stereo not drawn) [mianserin]
[1]
  T cell [Ca^2+]i: NE
Jurkat T cells
  T cell PROLIF: NE
[2]
  MDA PROLIF: NE

## COC(=O)C1=C(C)NC(C)=C(C(=O)OC(C)C)C1c1cccc2nonc12 (stereo not drawn) [isradipine]
[1]
  T cell [Ca^2+]i: ↓
Jurkat T cells
  T cell PROLIF: NE
[2]
  MDA PROLIF: NE

## CCn1cc(C(=O)O)c(=O)c2cnc(N3CCNCC3)nc21 [pipenidic acid]
[1]
  T cell [Ca^2+]i: NE
Jurkat T cells
  T cell PROLIF: NE
[2]
  MDA PROLIF: NE

## Cc1nc(C)c(C)nc1C [tetranethylpyrazine]
[1]
  T cell [Ca^2+]i: NE
[2]
  MDA PROLIF: NE

## CN1CCN(C(c2ccccc2)c2ccccc2)CC1 [cyclizine]
[1]
  T cell [Ca^2+]i: NE
[2]
  MDA PROLIF: NE

## Nc1cc(-c2ccncc2)c[nH]c1=O [amrinone]
[1]
  T cell [Ca^2+]i: NE
[2]
  MDA PROLIF: NE

## COc1cc(C(O)C(O)CO)ccc1O (stereo not drawn) [3-methoxy, 4-hydroxyphenylglycerol]
[1]
  T cell [Ca^2+]i: NE
[2]
  MDA PROLIF: NE

## c1ccc2nc(N3CCNCC3)ccc2c1 [quipazine]
[1]
  T cell [Ca^2+]i: NE
[2]
  MDA PROLIF: NE

## OCCN1CCN(CCCN2c3ccccc3Sc3ccc(C(F)(F)F)cc32)CC1 [fluphenazine]
[1]
  T cell [Ca^2+]i: ↓
Jurkat T cells
  T cell PROLIF: ↓
[5]
  MDA [CA^2+]i: ↓
[2]
  MDA PROLIF: ↓
